Test [1] relates to bacterial viability of stimulated saliva samples. In words: Salivary ATP bacteria viability assay (luciferase). In kind it is cell-based. As to conditions: one-minute treatment; for Log10 of Viability, Mean: average of two experiments. An excerpt: In order to screen for preliminary antibacterial efficacy, a NaDCC solution was subjected to an ATP-bacteria viability test. This method determines the number of viable bacterial cells in culture based on the quantification of adenosine triphosphate (ATP) present. ATP is a product of the catabolism of glucose (glycolysis) and aerobic respiration. This essential nucleoside triphosphate powers virtually all cell functions and is used by bacteria during cell division, the synthesis of nucleic acids and proteins, the transport of macromolecules, cell signaling, and bacterial motility. Given its importance, ATP signals the presence of metabolically active cells, and therefore it may be used to quantify cell viability.
In a reaction, luciferin is converted to oxiluciferin by the luciferase enzyme in the presence of ATP and oxygen. A direct relationship exists between the light output of the reaction and the number of metabolically active cells that makes this method ideal for the rapid screening of antimicrobial agents during the development of oral care formulas to establish their potential antibacterial efficacy. A salivary ATP assay was used to evaluate the antibacterial efficacy of NaDCC-containing tablets on bacterial viability of stimulated saliva samples.
In this assay, a mouthwash solution containing 0.075% cetylpyridinium chloride (CPC), a known antibacterial agent, was used as a positive control. An NaDCC tablet containing only NaDCC and weighing 20 mg was disintegrated in two phosphate buffered saline (PBS) solutions to yield both a 500 ppm NaDCC solution and a 1000 ppm NaDCC solution. […] Lower viability translates into higher antibacterial properties. The data below in Table 4 was calculated using the Tukey Method with a 95% Confidence Interval for the mean.

Test [2] in a line: pH-dependent bleaching of Lissamine green B by NaDCC. The protocol:
Two different solutions, Solution A and Solution B, were prepared. Solution A contained 2% SAPP, 0.1% Lissamine green B dye, and 97.9% water. Solution B contained 2% tetrasodium pyrophosphate (TSPP), 0.1% Lissamine green B dye, and 97.9% water. Next, solutions with various pHs were obtained by mixing the two different solutions A and B, in different volume ratios (i.e., 1:0, 1:5, 1:1, 5:1, and 0:1). 20 mL of the resulting solutions were added to 10 mg NaDCC, and the time required to bleach away all of the Lissamine green B color was recorded.

For the molecule `CCCCCCCCCCCCCCCC[n+]1ccccc1` [CPC, cetylpyridinium chloride, reference compound], in test [1] (0.075% CPC mouthwash solution (positive control)), the “Log10 of Viability, Mean” value came out at 5.061 ± 0.032.

In the case of `O=c1nc(O)n(Cl)c(=O)n1Cl` [NaDCC, sodium dichloroisocyanurate], the “Log10 of Viability, Mean” value in test [1] (500 ppm NaDCC in PBS) amounted to 4.139 ± 0.001; in test [1] (1000 ppm NaDCC in PBS) it was 3.530 ± 0.048. In test [1] (NaDCC solutions at both 500 ppm and 1000 ppm in PBS), the “antibacterial properties compared to the 0.075% CPC solution” value was “statistically significant improvement”. Also, the Time to bleach entry in test [2] (10 mg NaDCC in 20 mL Mix Solution 1, VA:VB 1:0, pH 4.6) is “Instantaneous”; in test [2] (10 mg NaDCC in 20 mL Mix Solution 2, VA:VB 1:5, pH 5.8), 0.25 min; in test [2] (10 mg NaDCC in 20 mL Mix Solution 3, VA:VB 1:1, pH 7.4) it was 8 min; in test [2] (10 mg NaDCC in 20 mL Mix Solution 4, VA:VB 5:1, pH 8.8), 35 min; in test [2] (10 mg NaDCC in 20 mL Mix Solution 5, VA:VB 0:1, pH 10.5), 80 min.

The record behind these values is patent US20200163857A1, “Dual Component Compositions for Teeth Whitening” (Colgate-Palmolive Company, priority 2018, published 2020).
